Assay results as given in US11485744B2, “High penetration prodrug compositions of antimicrobials and antimicrobial-related compounds” (priority 2009, dated 2022).
Counter-ions that a name gives are not always drawn.

Columns and labels:
[1] = Conversion of HPPs to parent drugs in human plasma (half life); type: in vitro ADME; conditions: for half-life at 9.1 mg/mL: pH 7.4
Experimental: HPPs of antimicrobials or antimicrobial-related compounds converted to the parent antimicrobials or antimicrobial-related compounds quickly in good yield in human plasma.
A HPP of antimicrobial or antimicrobial-related compound (10 mg) was dissolved in 0.1 ml of 0.2M pH 7.4 phosphate buffer. 1 ml of human plasma, preheated to 37° C., was added into the mixture. The mixture was kept in a water bath at 37° C., and at every 2 min intervals 0.2 ml of samples were withdrawn and added to 0.4 ml of methanol to precipitate the plasma protein.

[2] = In vitro penetration across isolated human skin in modified Franz cells
Experimental: Penetration rates of HPPs and their parent drugs through human skin were measured in vitro by modified Franz cells. A Franz cell had two chambers, the top sample chamber and the bottom receiving chamber. The human skin tissue (360-400 μm thick) that separated the top and the receiving chambers was isolated from the anterior or posterior thigh areas.
A test compound (2 mL, 10% in 0.2 M phosphate buffer, pH 7.4) was added to the sample chamber of a Franz cell. The receiving chamber contained 10 ml of 0.2 M phosphate buffer which was stirred at 600 rpm. The amount of the tested compound penetrating the skin was determined by high-performance liquid chromatography (HPLC) method.

[3] = Table 1b, isolated human skin, Franz cells, 10% in 0.2 M phosphate buffer pH 7.4, n=5

With “3-[[(aminocarbonyl)oxy]methyl]-7-[[2-furanyl(methoxyimino)acetyl]amino]-8-oxo-5-thia-1-azabicyclo[4.2.0]oct-2-ene-2-carboxylic acid 2-diethylaminoethyl ester hydrochloride” the “Half life of HPPs in plasma” value ([1]; human plasma, 37° C.) was 8 ± 1 min and the “In vitro Penetration Rate (apparent flux), HPPs” value ([2]; Table 1a, isolated human skin, Franz cells, 10% in 0.2 M phosphate buffer pH 7.4, n=5) was 0.67 ± 0.04 mg/cm^2/h.

With CCN(CC)CCOC(=O)C1=C(COC(C)=O)CSC2C(NC(=O)C(=NOC)c3csc(NC(C)=O)n3)C(=O)N12.Cl (centres unmarked) [3-[(acetyloxy)methyl]-7-[[(2-acetylamino-4-thiazolyl)(methoxyimino)acetyl]amino]-8-oxo-5-thia-1-azabicyclo[4.2.0]oct-2-ene-2-carboxylic acid 2-diethylaminoethyl ester hydrochloride] the half-life at 9.1 mg/mL ([1]; human, plasma) was 10 min and the “In vitro Penetration Rate (apparent flux), HPPs” value ([2]; human, 10 %, pH 7.4) was 0.73 ± 0.06 mg/cm^2/h.

In the case of CCN(CC)CCOC(=O)C1=C(COC(N)=O)CSC2N1C(=O)C2(NC(=O)Cc1cccs1)OC.Cl (centres unmarked) [3-[[(aminocarbonyl)oxy]methyl]-7-methoxy-8-oxo-7-[(2-thienylacetyl)amino]-5-thia-1-azabicyclo[4.2.0]oct-2-ene-2-carboxylic acid 2-diethylaminoethyl ester hydrochloride], the half-life at 9.1 mg/mL ([1]; human, plasma) is reported as 7 min and the “In vitro Penetration Rate (apparent flux), HPPs” value ([2]; human, 10 %, pH 7.4) is reported as 0.61 ± 0.05 mg/cm^2/h.

For CCN(CC)CCOC(=O)C1N2C(=O)C(NC(=O)[C@H](NC(=O)N3CCN(CC)C(=O)C3=O)c3ccccc3)C2SC1(C)C.Cl (stereo partly drawn) [6-D(−)-α-(4-ethyl-2,3-dioxo-1-piperazinylcarbonylamino)-α-phenylacetamidopenicillinic acid 2-diethylaminoethyl ester hydrochloride], the “Half life of HPPs in plasma” value ([1]; human plasma, 37° C.) was 15 ± 1 min and the “In vitro Penetration Rate (apparent flux), HPPs” value ([2]; pH 7.4) was 0.74 ± 0.08 mg/cm^2/h.

For CCN(CC)CCOC(=O)C1N2C(=O)C(NC(=O)c3c(-c4c(Cl)cccc4Cl)noc3C)C2SC1(C)C.Cl (centres unmarked) [6-[3-(2,6-dichlorophenyl)-5-methyl-4-isoxazolecarboxamido]penicillinic acid 2-diethylaminoethyl ester hydrochloride], the “Half life of HPPs in plasma” value ([1]; human, plasma) was 12 ± 1 min.

With CCN(CC)CCOC(=O)C1N2C(=O)C(NC(=O)[C@H](NC(C)=O)c3ccccc3)C2SC1(C)C.Cl (stereo partly drawn) [6-[D(−)-α-acetamidophenylacetamidopenicillinic acid 2-diethylaminoethyl ester hydrochloride] the “Half life of HPPs in plasma” value ([1]; human, plasma) was 10 ± 1 min.

With CCN(CC)CCOC(=O)C1N2C(=O)[C@@H](NC(=O)C(NC(=O)N3CCN(S(C)(=O)=O)C3=O)c3ccccc3)C2SC1(C)C.Cl (stereo partly drawn) [6R-[2-[3-(methylsulfonyl)-2-oxo-1-imidazolidinecarboxamido]-2-phenylacetamido]penicillinic acid 2-diethylaminoethyl ester hydrochloride] the “Half life of HPPs in plasma” value ([1]; human, plasma) was 13 ± 1 min.

For CCN(CC)CCOC(=O)C1=C(COC(C)=O)CSC2C(NC(=O)Cc3cccs3)C(=O)N12.Cl (centres unmarked) [7-(2-thienylacetamido)cephalosporanic acid 2-diethylaminoethyl ester hydrochloride], the “Half life of HPPs in plasma” value ([1]; human plasma, 37° C.) was 9 ± 1 min and the “In vitro Penetration Rate (apparent flux), HPPs” value ([2]; pH 7.4) was 0.62 ± 0.06 mg/cm^2/h.

For C=CC1=C(C(=O)OCCN(CC)CC)N2C(=O)C(NC(=O)/C(=N\OCC(=O)OCC)c3csc(NC(C)=O)n3)C2SC1.Cl (centres unmarked) [7-[2-(2-acetylamino-4-thiazolyl)-2-((Z)-ethoxycarbonylmethoxy)imino]acetamido]-3-(vinyl)-8-oxo-5-thia-1-azabicyclo[4.2.0]oct-2-ene-2-carboxylic acid 2-diethylaminoethyl ester hydrochloride], the “Half life of HPPs in plasma” value ([1]; human plasma, 37° C.) was 9 ± 1 min and the “In vitro Penetration Rate (apparent flux), HPPs” value ([2]; pH 7.4) was 0.58 ± 0.05 mg/cm^2/h.

With CCN(CC)CCOC(=O)C1=C(COC)CSC2C(NC(=O)/C(=N\OC)c3csc(NC(C)=O)n3)C(=O)N12.Cl (centres unmarked) [7-[2-(2-acetylamino-4-thiazolyl)-2-((Z)-methoxyimino)acetamido]-3-(methoxymethyl)-8-oxo-5-thia-1-azabicyclo[4.2.0]oct-2-ene-2-carboxylic acid 2-diethylaminoethyl ester hydrochloride] the half-life at 9.1 mg/mL ([1]; human, plasma) was 8 min and the “In vitro Penetration Rate (apparent flux), HPPs” value ([2]; human, 10 %, pH 7.4) was 0.51 ± 0.03 mg/cm^2/h.

For CCN(CC)CCOC(=O)C1=C(Cl)CSC2C(NC(=O)C(NC(C)=O)c3ccccc3)C(=O)N12.Cl (centres unmarked) [7-[(acetylaminophenylacetyl)amino]-3-chloro-8-oxo-5-thia-1-azabicyclo[4.2.0]oct-2-ene-2-carboxylic acid 2-diethylaminoethyl ester hydrochloride], the half-life at 9.1 mg/mL ([1]; human, plasma) was 8 min and the “In vitro Penetration Rate (apparent flux), HPPs” value ([2]; human, 10 %, pH 7.4) was 0.71 ± 0.05 mg/cm^2/h.

In the case of CCN(CC)CCOC(=O)C1N2C(=O)C(NC(=O)[C@H](NC(=O)N3CCNC3=O)c3ccccc3)C2SC1(C)C.Cl (stereo partly drawn) [D-α-[(imidazolidin-2-on-1-yl)carbonylamino]benzylpenicillin 2-diethylaminoethyl ester hydrochloride], the “Half life of HPPs in plasma” value ([1]; human, plasma) is reported as 9 ± 1 min.

With CN(C)CCCC(=O)Nc1ccc(S(N)(=O)=O)cc1.Cl [DMAB-sulfanilamide, 4-(4-dimethylaminobutyryl)amidobenzenesulfonamide•HCl salt] the “In vitro Penetration Rate (apparent flux), HPPs of sulfonamides, sulfones, quinolones” value ([2]; pH 7.4) was 0.18 ± 0.03 mg/cm^2/h.

In the case of Cc1onc(-c2c(Cl)cccc2Cl)c1C(=O)N[C@@H]1C(=O)N2[C@@H]1SC(C)(C)[C@@H]2C(=O)O [Dicloxacillin, reference compound], the “In vitro Penetration Rate (apparent flux), Parent compounds” value ([2]; human, 10 %, pH 7.4) is reported as under 0.001 mg/cm^2/h.

With CC1(C)S[C@@H]2[C@H](NC(=O)[C@H](NC(=O)N3CCN(S(C)(=O)=O)C3=O)c3ccccc3)C(=O)N2[C@H]1C(=O)O [Mezlocillin, reference compound] the “In vitro Penetration Rate (apparent flux), Parent compounds” value ([2]; human, 10 %, pH 7.4) was under 0.001 mg/cm^2/h.

In the case of Cl.O=C(NCP(=O)(OCCN1CCCCC1)Oc1cccnc1)OCc1ccccc1 (centres unmarked) [[(N-benzyloxycarbonylamino)methyl]-phosphonic acid (3-pyridinyl)(1-piperidineethyl) ester•HCl salt], the “In vitro Penetration Rate (apparent flux), HPPs of beta-lactamases inhibitors” value [2, 3] is reported as 0.25 ± 0.04 mg/cm^2/h.

In the case of CCN(CC)COP(=O)(CNC(=O)OCc1ccccc1)Oc1ccc([N+](=O)[O-])cc1.Cl (centres unmarked) [[(N-benzyloxycarbonylamino)methyl]-phosphonic acid (4-nitrophenyl)(N,N-diethylaminomethyl) ester•HCl salt], the “In vitro Penetration Rate (apparent flux), HPPs of beta-lactamases inhibitors” value [2, 3] is reported as 0.37 ± 0.03 mg/cm^2/h.

For O=C(NCP(=O)([O-])Oc1cccnc1)OCc1ccccc1.[Na+] [[(N-benzyloxycarbonylamino)methyl]-phosphonic acid mono-(3-pyridinyl) ester sodium salt, reference compound], the “In vitro Penetration Rate (apparent flux), Parent compounds (beta-lactamases inhibitors)” value [2, 3] was under 0.001 mg/cm^2/h.

For O=C(NCP(=O)([O-])Oc1ccc([N+](=O)[O-])cc1)OCc1ccccc1.[Na+] [[(N-benzyloxycarbonylamino)methyl]-phosphonic acid mono-(4-nitrophenyl) ester sodium salt, reference compound], the “In vitro Penetration Rate (apparent flux), Parent compounds (beta-lactamases inhibitors)” value [2, 3] was under 0.001 mg/cm^2/h.

With C=CCSCC(=O)NC1C(=O)N2C1SC(C)(C)C2C(=O)OCCN(CC)CC.Cl (centres unmarked) [allylmercaptomethylpenicillinic acid 2-diethylaminoethyl ester hydrochloride] the “Half life of HPPs in plasma” value ([1]; human, plasma) was 8 ± 1 min.

For CO[C@@]1(NC(=O)Cc2cccs2)C(=O)N2C(C(=O)O)=C(COC(N)=O)CS[C@@H]21 [cefoxitin, reference compound], the “In vitro Penetration Rate (apparent flux), Parent compounds” value ([2]; human, 10 %, pH 7.4) was under 0.001 mg/cm^2/h.

For O=C(O)[C@H]1/C(=C/CO)O[C@@H]2CC(=O)N21 [clavulanic acid, (2R,5R,Z)-3-(2-hydroxyethylidene)-7-oxo-4-oxa-1-aza-bicyclo[3.2.0]heptane-2-carboxylic acid, reference compound], the “In vitro Penetration Rate (apparent flux), Parent compounds (beta-lactamases inhibitors)” value ([2]; human, 10 %, pH 7.4) was under 0.001 mg/cm^2/h.

For Cl.O=C(OCCC1CCNCC1)[C@H]1/C(=C/CO)O[C@@H]2CC(=O)N21 [clavulanic acid-PEE, (2R,5R,Z)-3-(2-hydroxyethylidene)-7-oxo-4-oxa-1-aza-bicyclo[3.2.0]heptane-2-carboxylic acid 4-piperidineethyl ester•HCl salt], the “In vitro Penetration Rate (apparent flux), HPPs of beta-lactamases inhibitors” value ([2]; pH 7.4) was 0.29 ± 0.02 mg/cm^2/h.

For C=CCSCC(=O)N[C@@H]1C(=O)N2[C@@H]1SC(C)(C)[C@@H]2C(=O)O [penicillin O, reference compound], the “In vitro Penetration Rate (apparent flux), Parent compounds” value ([2]; pH 7.4) was under 0.001 mg/cm^2/h.

In the case of CCN(CC)CCCOC(=O)C1=CC(=NNc2ccc(S(=O)(=O)Nc3ccccn3)cc2)C=CC1=O.Cl [sulfasalazine-DEPE, 6-oxo-3-(2-[4-(N-pyridin-2-ylsulfamoyl)phenyl]hydrazono)cyclohexa-1,4-dienecarboxylic acid N,N-diethyaminopropyl ester•HCl salt], the “In vitro Penetration Rate (apparent flux), HPPs of sulfonamides, sulfones, quinolones” value ([2]; pH 7.4) is reported as 0.21 ± 0.03 mg/cm^2/h.

With C[C@]1(Cn2ccnn2)[C@H](C(=O)O)N2C(=O)C[C@H]2S1(=O)=O [tazobactam, [2S-(2alpha,3beta,5alpha)]-3-Methyl-7-oxo-3-(1H-1,2,3-triazol-1-ylmethyl)-4-thia-1-azabicyclo[3.2.0]heptane-2-carboxylic acid 4,4-dioxide sodium salt, reference compound] the “In vitro Penetration Rate (apparent flux), Parent compounds (beta-lactamases inhibitors)” value ([2]; human, 10 %, pH 7.4) was under 0.001 mg/cm^2/h.

For C[C@]1(Cn2ccnn2)[C@H](C(=O)OCCN2CCCCC2)N2C(=O)C[C@H]2S1(=O)=O.Cl [tazobactam-PEE, [2S-(2alpha,3beta,5alpha)]-3-Methyl-7-oxo-3-(1H-1,2,3-triazol-1-ylmethyl)-4-thia-1-azabicyclo[3.2.0]heptane-2-carboxylic acid 4,4-dioxide 1-piperidineethyl ester•HCl salt], the “In vitro Penetration Rate (apparent flux), HPPs of beta-lactamases inhibitors” value ([2]; pH 7.4) was 0.32 ± 0.03 mg/cm^2/h.
